Test results as given in patent publication US20110039762A1, “TARGETED ANTIMICROBIAL MOIETIES” (C3 JIAN, INC., priority 2009, published 2011).
“Also recorded” adds a separate entry of the source.

What was measured:
M. luteus = test: Kill or inhibit growth/proliferation; morphology, biofilm and growth disruption (Tables 5, 6); assay type: cell-based, Micrococcus luteus; parameters: key: A: Peptide aggregates; B: Less hyphal formation; Clumps; Diffuse clumps and small polyps; F: Diffuse growth; H: Thin; I: Growth inhibition; Microcolony formation; Rippled; Small polyps; Thick; W: Halo formation on top, microlonies on bottom; further: test concentration or dose not given here
S. epidermidis = test: as above; assay type: cell-based, Staphylococcus epidermidis; parameters: key: A: Peptide aggregates; B: Less hyphal formation; Clumps; Diffuse clumps and small polyps; F: Diffuse growth; H: Thin; I: Growth inhibition; Microcolony formation; Rippled; Small polyps; Thick; W: Halo formation on top, microlonies on bottom
C. jeikeium = test: as above; assay type: cell-based, Corynebacterium jeikeium; parameters: key: A: Peptide aggregates; B: Less hyphal formation; Clumps; Diffuse clumps and small polyps; F: Diffuse growth; H: Thin; I: Growth inhibition; Microcolony formation; Rippled; Small polyps; Thick; W: Halo formation on top, microlonies on bottom
microorganisms = test: Peptides having multiple activities (targeting/binding, antimicrobial, growth or phenotype altering)
Source text: In certain embodiments, peptides described herein can have multiple activities. Thus for example, a peptide can have both binding/targeting activity and antimicrobial activity. Such peptides can be used, e.g., in a chimeric construct, for any or all of these properties. Thus, for example, a peptide designated “B” in Table 8 can be used as a targeting peptide. If it is also designated G or M it can also be used for antimicrobial activity.

MRSA = test: Kill or inhibit growth/proliferation; morphology, biofilm and growth disruption (Tables 5, 6); assay type: cell-based, Methicillin-resistant Staphylococcus aureus; parameters: key: A: Peptide aggregates; B: Less hyphal formation; Clumps; Diffuse clumps and small polyps; F: Diffuse growth; H: Thin; I: Growth inhibition; Microcolony formation; Rippled; Small polyps; Thick; W: Halo formation on top, microlonies on bottom; further: test concentration or dose not given here
[1] = tested on: microorganisms (e.g., bacteria, yeasts, fungi); test: Targeting peptide binding to target microorganisms (Table 3); details: preferably 1x PBS; for Target(s) (microorganisms bound by the targeting peptide): peptide binding in aqueous buffers varied by peptide solubility
E. faecalis = test: Kill or inhibit growth/proliferation; morphology, biofilm and growth disruption (Tables 5, 6); assay type: cell-based, Enterococcus faecalis; parameters: key: A: Peptide aggregates; B: Less hyphal formation; Clumps; Diffuse clumps and small polyps; F: Diffuse growth; H: Thin; I: Growth inhibition; Microcolony formation; Rippled; Small polyps; Thick; W: Halo formation on top, microlonies on bottom; further: test concentration or dose not given here
S. pneumoniae = test: as above; assay type: cell-based, Streptococcus pneumoniae; parameters: key: A: Peptide aggregates; B: Less hyphal formation; Clumps; Diffuse clumps and small polyps; F: Diffuse growth; H: Thin; I: Growth inhibition; Microcolony formation; Rippled; Small polyps; Thick; W: Halo formation on top, microlonies on bottom; further: test concentration or dose not given here
E. coli = test: as above; assay type: cell-based, Escherichia coli; parameters: key: A: Peptide aggregates; B: Less hyphal formation; Clumps; Diffuse clumps and small polyps; F: Diffuse growth; H: Thin; I: Growth inhibition; Microcolony formation; Rippled; Small polyps; Thick; W: Halo formation on top, microlonies on bottom
[2] = microorganism the targeting peptide binds, binding in aqueous buffers varied by peptide solubility
Wherever Organism, effect (morphology, biofilm and growth disruption) is given: test concentration or dose not given here.
Wherever Organism, effect is given: test concentration or dose not given here.

| Substance | Organism, effect (M. luteus) | Organism, effect (S. epidermidis) | Organism, effect (C. jeikeium) | Activities (microorganisms) | Organism, effect (MRSA) | further results |
| --- | --- | --- | --- | --- | --- | --- |
| PF-199 (FPAFSFGAIAGSVSVAR; Peptide with targeting and/or antimicrobial activity) | M. luteus (A) | S. epidermidis (C) | C. jeikeium (R) |  |  |  |
| PF-030: peptide having multiple activities (chain 1 MTCHQAPTTTHQSNMA; chain 2 MTCHQAPTTTHQSNMA; Peptide with targeting and/or antimicrobial activity) | M. luteus (C) | S. epidermidis (D) | C. jeikeium (C) | G B | MRSA (R) |  |
| PF-052: peptide having multiple activities (chain 1 QELINEAVNLLVKSK; chain 2 QELINEAVNLLVKSK; Peptide with targeting and/or antimicrobial activity) | M. luteus (A) | S. epidermidis (S) | C. jeikeium (D) | G B | MRSA (R) | Target(s) [1, 2]: S. epidermidis and M. luteus and E. coli and MRSA and E. faecalis and C. jeikeium and C. jejuni |
| PF-001: peptide having multiple activities (chain 1 MNNWIIVAQLSVTVINEIIDIMKEKQKGGK; chain 2 MNNWIIVAQLSVTVINEIIDIMKEKQKGGK; Peptide with targeting and/or antimicrobial activity) | M. luteus (C) | S. epidermidis (C) | C. jeikeium (D) | G B | MRSA (R) |  |
| PF-025: peptide having multiple activities (chain 1 LLIIFRLWLELKWKNKK; chain 2 LLIIFRLWLELKWKNKK; Peptide with targeting and/or antimicrobial activity) | M. luteus (A) | S. epidermidis (S) | C. jeikeium (A) | G B | MRSA (R) | Target(s) [1, 2]: S. epidermidis and M. luteus and P. mirabilis and E. coli and P. aeruginosa and MRSA and E. faecalis and C. jejuni |
| PF-139: peptide having multiple activities (ALSKPAIQARTLCRRQDPP; Peptide with targeting and/or antimicrobial activity) | M. luteus (C) | S. epidermidis (M) | C. jeikeium (R) | G B |  |  |
| PF-003: peptide having multiple activities (chain 1 MNNWIKVAQISVTVINEVIDIMKEKQNGGK; chain 2 MNNWIKVAQISVTVINEVIDIMKEKQNGGK; Peptide with targeting and/or antimicrobial activity) | M. luteus (A) | S. epidermidis (D) | C. jeikeium (A) | G B | MRSA (R) | Target(s) [1, 2]: S. epidermidis and M. luteus and P. mirabilis and C. albicans and MRSA and C. jeikeium |
| PF-042: peptide having multiple activities (chain 1 LLLSYFRYTGALLQSLF; chain 2 LLLSYFRYTGALLQSLF; Peptide with targeting and/or antimicrobial activity) | M. luteus (C) | S. epidermidis (D) | C. jeikeium (S) | G B | MRSA (R) |  |
| PF-681: peptide having multiple activities (chain 1 TALTTVGVSGARLITYCVGVEDI; chain 2 TALTTVGVSGARLITYCVGVEDI; Peptide with targeting and/or antimicrobial activity) |  |  |  | G B |  | Organism, effect (morphology, biofilm and growth disruption) (E. faecalis): E. faecalis (R); Organism, effect (morphology, biofilm and growth disruption) (S. epidermidis): S. epidermidis (M); Organism, effect (morphology, biofilm and growth disruption) (C. jeikeium): C. jeikeium (R); Organism, effect (morphology, biofilm and growth disruption) (MRSA): MRSA (M); Target(s) (microorganisms bound by the targeting peptide) [1]: M. smegmatis; Organism, effect (morphology, biofilm and growth disruption) (S. pneumoniae): S. pneumoniae (M) |
| PF-004: peptide having multiple activities (chain 1 ARLSKAIIIAVIVVYHLDVRGLF; chain 2 ARLSKAIIIAVIVVYHLDVRGLF; Peptide with targeting and/or antimicrobial activity) | M. luteus (A) | S. epidermidis (A) | C. jeikeium (A) | G B | MRSA (R) |  |
| PF-546: peptide having multiple activities (chain 1 PIIAPTIKTQIQ; chain 2 PIIAPTIKTQIQ; Peptide with targeting and/or antimicrobial activity) |  | S. epidermidis (D) | C. jeikeium (D) | G B | MRSA (D) | Organism, effect (E. faecalis): E. faecalis (D); Organism, effect (E. coli): E. coli (R); Target(s) ([1]; microorganism(s) the targeting peptide binds, peptide binding conducted in aqueous buffers varied by peptide solubility): S. epidermidis; also recorded: E. coli; also recorded: C. albicans; also recorded: S. pneumoniae; also recorded: E. faecalis; also recorded: C. jeikeium; Organism, effect (S. pneumoniae): S. pneumoniae (D) |
| PF-076: peptide having multiple activities (LYQYELLSKEEYLKCTLIINQRRNEQK; Peptide with targeting and/or antimicrobial activity) | M. luteus (A) | S. epidermidis (S) | C. jeikeium (A) | G B | MRSA (R) |  |
| PF-176: peptide having multiple activities (RLTSNQFLTRITPFVFAQH; Peptide with targeting and/or antimicrobial activity) | M. luteus (C) | S. epidermidis (C) | C. jeikeium (D) | G B |  | Target(s) ([1]; microorganism(s) the targeting peptide binds, binding in aqueous buffers depending on peptide solubility): S. epidermidis and M. luteus and P. mirabilis and E. coli and C. albicans and MRSA and E. faecalis and C. jeikeium |
| PF-622: peptide having multiple activities (TREDVFSVRLINNIVNKQA; Peptide with targeting and/or antimicrobial activity) |  | S. epidermidis (D) | C. jeikeium (D) | G B | MRSA (D) | Organism, effect (E. faecalis): E. faecalis (D); Target(s) (microorganisms bound by the targeting peptide) [1]: S. epidermidis; also recorded: P. aeruginosa; also recorded: C. albicans; also recorded: S. pneumoniae; also recorded: E. faecalis; also recorded: C. jeikeium; Organism, effect (S. pneumoniae): S. pneumoniae (M) |
| PF-022: peptide having multiple activities (chain 1 MINELKNKNSGIMNNYVVTKESKL; chain 2 MINELKNKNSGIMNNYVVTKESKL; Peptide with targeting and/or antimicrobial activity) | M. luteus (A) | S. epidermidis (D) | C. jeikeium (A) | G B | MRSA (R) |  |
| PF-012: peptide having multiple activities (chain 1 WRGPNTEAGGKSANNIVQVGGAPT; chain 2 WRGPNTEAGGKSANNIVQVGGAPT; Peptide with targeting and/or antimicrobial activity) | M. luteus (C) | S. epidermidis (S) | C. jeikeium (A) | G B | MRSA (R) |  |
